One assay deals with T1, ERMR1:04 lipase.
T1 construct: gene alpha/beta hydrolase; native extracellular enzyme purified from culture supernatant (ammonium sulfate, Sephadex G-100, Octyl-Sepharose); gene not firmly identified: MALDI top hit alpha/beta hydrolase of Solibacillus sp
Kind of assay: p-nitrophenol release at […] nm; Lineweaver-Burk plot. Type of assay: biochemical, Chryseobacterium polytrichastri. The following applies: 50 mM Tris pH 8, 37°C; 0.025-0.3 mM substrate.

Assay [1] addresses extracellular lipase of Chryseobacterium polytrichastri ERMR1:04 (Chryseobacterium polytrichastri ERMR1:04 (endogenous, secreted)). Briefly: native gel or EMSA; 10% native PAGE of the Octyl-Sepharose purified lipase (250 kDa band) compared with 12% SDS-PAGE (39.8 kDa band). (In general: A gel shift assay detects complexes by their altered migration in electrophoresis.)

For the compound `CCCCCCCCCCCCCCCC(=O)Oc1ccc([N+](=O)[O-])cc1` [pNPP, p-nitrophenyl palmitate], the Km with ERMR1:04 lipase turned out to be 104 µM.
As for “extracellular lipase of Chryseobacterium polytrichastri ERMR1:04 (enzyme)”, in assay [1], the stoichiometry N worked out at 6.

By Km is commonly meant the concentration of substrate that gives half-maximal velocity. For orientation: stoichiometry N means the number of molecules, sites or subunits per partner or assembly.

(Values after PMC7329984, “A Broad Temperature Active Lipase Purified From a Psychrotrophic Bacterium of Sikkim Himalaya With Potential Application in Detergent Formulation” (Frontiers in Bioengineering and Biotechnology, 2020).)
